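Test compounds were applied to cells in 96-well plates for 48 hours at 5 doses. GI50 marks 50% less growth.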 Active and inactive are the calls of the source. No stated cut-off is given here; in the data, active = GI50 up to about 1.1 µM and inactive = higher.
Columns and labels:
Test in all cases: NCI tumour cell line growth inhibition, 48 h
[1] = tested on: HL-60
[2] = tested on: DU-145
[3] = tested on: OVCAR-5
[4] = tested on: U-251
[5] = tested on: MCF7
[6] = tested on: HOP-92
[7] = tested on: Malme-3M
[8] = tested on: PC-3
[9] = tested on: UO-31
[10] = tested on: RPMI-8226
[11] = tested on: SF-268
[12] = tested on: SW-620
[13] = tested on: IGROV-1
[14] = tested on: HOP-62
[15] = tested on: SK-MEL-28
[16] = tested on: NCI-H460
[17] = tested on: T47D
[18] = tested on: CCRF-CEM
[19] = tested on: HT-29
[20] = tested on: SN12C

SMILES | GI50 [1] | GI50 [2] | GI50 [3] | GI50 [4] | GI50 [5] | GI50 [6] | GI50 [7] | GI50 [8] | GI50 [9] | GI50 [10] | GI50 [11] | GI50 [12] | GI50 [13] | GI50 [14] | GI50 [15] | GI50 [16] | GI50 [17] | GI50 [18] | GI50 [19] | GI50 [20]
COc1cccc(C(NC2=NCCC=N2)c2cc3c(cc2O)OCO3)c1O (stereo not given) | 8.93 µM (inactive) | > 100 µM (inactive) | 36.6 µM (inactive) | 17.7 µM (inactive) | 18 µM (inactive) | 23.7 µM (inactive) | 38.1 µM (inactive) | 29.1 µM (inactive) | 35.6 µM (inactive) | 21.5 µM (inactive) | 34.8 µM (inactive) | 20.4 µM (inactive) | 29.4 µM (inactive) | 25.7 µM (inactive) | 32.7 µM (inactive) | 29.8 µM (inactive) | 25.5 µM (inactive) | 10.8 µM (inactive) | 38.5 µM (inactive) | 19.6 µM (inactive)
CO[C@@H]1C[C@H]2[C@@H]3CC[C@H]([C@H](C)COC(C)=O)[C@@]3(C)CC[C@@H]2[C@@]2(C)CC[C@H]3C[C@]312 | > 100 µM (inactive) | > 100 µM (inactive) | > 100 µM (inactive) | > 100 µM (inactive) | 81.3 µM (inactive) | 73.5 µM (inactive) | > 100 µM (inactive) | > 100 µM (inactive) | > 100 µM (inactive) | > 100 µM (inactive) | > 100 µM (inactive) | > 100 µM (inactive) | > 100 µM (inactive) | > 100 µM (inactive) | > 100 µM (inactive) | > 100 µM (inactive) | > 100 µM (inactive) | > 100 µM (inactive) | > 100 µM (inactive) | > 100 µM (inactive)
CCOC(=O)c1c[nH]c2cc3c(cc2c1=O)CCS3 | 91 µM (inactive) | > 100 µM (inactive) | > 100 µM (inactive) | > 100 µM (inactive) | > 100 µM (inactive) | > 100 µM (inactive) | > 100 µM (inactive) | > 100 µM (inactive) | 83.9 µM (inactive) | > 100 µM (inactive) | > 100 µM (inactive) | > 100 µM (inactive) | > 100 µM (inactive) | > 100 µM (inactive) | > 100 µM (inactive) | > 100 µM (inactive) | > 100 µM (inactive) | > 100 µM (inactive) | 61.2 µM (inactive) | > 100 µM (inactive)
N=c1oc2ccccc2cc1C(=O)Nc1nccs1 | 0.91 µM (active) | 20.9 µM (inactive) | > 69.3 µM (inactive) | 33 µM (inactive) | 5.7 µM (inactive) | 32.5 µM (inactive) | 35.6 µM (inactive) | 34.5 µM (inactive) | 0.031 µM (active) | 14.1 µM (inactive) | 47.3 µM (inactive) | 19.9 µM (inactive) | 8.26 µM (inactive) | 18.8 µM (inactive) | 44.5 µM (inactive) | 26.7 µM (inactive) | 14.1 µM (inactive) | 2.79 µM (inactive) | 46.6 µM (inactive) | 46.9 µM (inactive)
CC(=O)N(CN1C(=O)CCC1C(=O)O)c1ccccc1 (stereo not given) | > 55.7 µM (inactive) | > 61.4 µM (inactive) | > 55.6 µM (inactive) | > 100 µM (inactive) | > 56.8 µM (inactive) | > 63.1 µM (inactive) | 29.8 µM (inactive) | > 55.8 µM (inactive) | > 56.9 µM (inactive) | > 55.2 µM (inactive) | > 52.4 µM (inactive) | > 100 µM (inactive) | > 50.4 µM (inactive) | > 55.6 µM (inactive) | > 100 µM (inactive) | > 100 µM (inactive) | > 57.3 µM (inactive) | > 54.2 µM (inactive) | > 55 µM (inactive) | > 57.7 µM (inactive)
CC(CN(C)C)C(O)(c1ccccc1)c1ccccc1 (stereo not given) | > 100 µM (inactive) | > 100 µM (inactive) | > 100 µM (inactive) | > 100 µM (inactive) | > 100 µM (inactive) | > 100 µM (inactive) | > 100 µM (inactive) | > 100 µM (inactive) | > 100 µM (inactive) | > 100 µM (inactive) | > 100 µM (inactive) | > 100 µM (inactive) | > 100 µM (inactive) | > 100 µM (inactive) | > 100 µM (inactive) | > 100 µM (inactive) | > 100 µM (inactive) | > 100 µM (inactive) | > 100 µM (inactive) | > 100 µM (inactive)
COc1cc(C2c3cc4c(cc3C(O)C3CCC(=O)N23)OCO4)cc(OC)c1OC (stereo not given) | 17.1 µM (inactive) | 51.8 µM (inactive) | 43.2 µM (inactive) | 26.1 µM (inactive) | 16.5 µM (inactive) | 33 µM (inactive) | > 100 µM (inactive) | 54.3 µM (inactive) | 15.7 µM (inactive) | 27.1 µM (inactive) | 49.9 µM (inactive) | 36.6 µM (inactive) | 39.5 µM (inactive) | 39.2 µM (inactive) | 16.8 µM (inactive) | 39.4 µM (inactive) | > 100 µM (inactive) | 29.9 µM (inactive) | 29.9 µM (inactive) | 58.7 µM (inactive)
NC(=O)c1ccc(NCC2=CC(=O)C=CC2=O)cc1 | 11.5 µM (inactive) | > 100 µM (inactive) | 23 µM (inactive) | 22 µM (inactive) | 23 µM (inactive) | 16.5 µM (inactive) | 19.5 µM (inactive) | 18.6 µM (inactive) | 17.3 µM (inactive) | 18.7 µM (inactive) | 22.9 µM (inactive) | 21.4 µM (inactive) | 20.8 µM (inactive) | > 100 µM (inactive) | 20.5 µM (inactive) | > 100 µM (inactive) | 28.1 µM (inactive) | 7.01 µM (inactive) | 22.1 µM (inactive) | 20.2 µM (inactive)
CCCCCCCCCCCCCCCCCCN(C)CC(COC)OP(=O)([O-])OCC[N+](C)(C)C (stereo not given) | 0.495 µM (active) | 2.22 µM (inactive) | 1.72 µM (inactive) | 0.891 µM (active) | 3.97 µM (inactive) | 1.17 µM (inactive) | 11.7 µM (inactive) | 0.374 µM (active) | 7.52 µM (inactive) | 0.635 µM (active) | 1.48 µM (inactive) | 3.15 µM (inactive) | 0.532 µM (active) | 1.72 µM (inactive) | 15.7 µM (inactive) | 0.851 µM (active) | 14 µM (inactive) | 1.51 µM (inactive) | 1.28 µM (inactive) | 3.3 µM (inactive)
CC1C(=O)C(C)C(c2ccccc2)N(N=O)C1c1ccccc1 (stereo not given) | > 724 µM (inactive) | 173 µM (inactive) | > 527 µM (inactive) | 60.1 µM (inactive) | > 100 µM (inactive) | 24.9 µM (inactive) | > 318 µM (inactive) | 152 µM (inactive) | > 21.1 µM (inactive) | > 724 µM (inactive) | 65.2 µM (inactive) | > 100 µM (inactive) | > 72.9 µM (inactive) | 41.8 µM (inactive) | > 409 µM (inactive) | > 592 µM (inactive) | 60.8 µM (inactive) | > 662 µM (inactive) | > 570 µM (inactive) | 400 µM (inactive)

From ChEMBL document CHEMBL1201862, “PubChem BioAssay data set” (2004)
